Reference: US11225477B2, “Inhibitors of influenza virus replication, application methods and uses thereof” (SUNSHINE LAKE PHARMA CO., LTD., priority 2015, dated 2022)

Columns and labels:
virus H1N1 A/Weiss/43 [1] = experiment: microbe, parasite or virus in culture; format: cell-based; settings: Influenza A virus, 120 h; MDCK cells, H1N1 A/Weiss/43, Scheme 1: 8 concentrations 100 μM to 0.05 μM, 5 days, CCK-8
[2] = SD, rat, in vivo, po, 5 mg/kg
Description: (§1) The compounds disclosed herein were administered in form of a saline solution containing 5% DMSO, 5% Kolliphor HS 15 and 90% Saline. […] Plasma samples were collected and stored at −20° C. or −70° C. until LC/MS/MS analysis.

in vivo = settings: SD, rat
Description: as §1

virus H1N1 A/Weiss/43 [3] = experiment: microbe, parasite or virus in culture; format: cell-based; settings: Influenza A virus, 120 h; MDCK cells, H1N1 A/Weiss/43, Scheme 2: 8 concentrations 50 nM to 0.023 nM, 5 days, CCK-8

SMILES: O=C(O)C1C2CCC(CC2)C1Nc1nc(-c2c[nH]c3ncc(F)cc23)nc2ccccc12 (racemic) [Example 1, (+/−)-trans-3-((2-(5-fluoro-1H-pyrrolo[2,3-b]pyridin-3-yl)quinazolin-4-yl)amino)bicyclo[2.2.2]octane-2-carboxylic Acid]
- EC50 (virus H1N1 A/Weiss/43 [1]): < 50 nM
- F [2]: 42.1%
- AUC(0-inf) (in vivo; iv, 1 mg/kg): 5020 ng·h/mL
- AUC(0-t) (in vivo; iv, 1 mg/kg): 4960 ng·h/mL
- Cmax (in vivo; iv, 1 mg/kg): 5900 ng/mL
- Tmax (in vivo; iv, 1 mg/kg): 4.98 min
- Vd (in vivo; iv, 1 mg/kg): 1.03 L/kg
- clearance (in vivo; iv, 1 mg/kg): 3.42 mL/min/kg
- half-life (in vivo; iv, 1 mg/kg): 67.8 min
- AUC(0-inf) (in vivo; po, 5 mg/kg): 10600 ng·h/mL
- AUC(0-t) (in vivo; po, 5 mg/kg): 10100 ng·h/mL
- Cmax (in vivo; po, 5 mg/kg): 3130 ng/mL
- Tmax (in vivo; po, 5 mg/kg): 50 min
- half-life (in vivo; po, 5 mg/kg): 88.8 min

SMILES: O=C(O)C1C2CCC(CC2)C1Nc1nc(-c2c[nH]c3ncc(F)cc23)nc2c1CCCC2 (racemic) [Example 2, (+/−)-trans-3-((2-(5-fluoro-1H-pyrrolo[2,3-b]pyridin-3-yl)-5,6,7,8-tetrahydroquinazolin-4-yl)amino)bicyclo[2.2.2]octane-2-carboxylic Acid]
- EC50 (virus H1N1 A/Weiss/43 [1]): < 50 nM
- F [2]: 47.1%
- AUC(0-inf) (in vivo; iv, 1 mg/kg): 3470 ng·h/mL
- AUC(0-t) (in vivo; iv, 1 mg/kg): 3440 ng·h/mL
- Cmax (in vivo; iv, 1 mg/kg): 4910 ng/mL
- Tmax (in vivo; iv, 1 mg/kg): 4.98 min
- Vd (in vivo; iv, 1 mg/kg): 1.26 L/kg
- clearance (in vivo; iv, 1 mg/kg): 4.9 mL/min/kg
- half-life (in vivo; iv, 1 mg/kg): 63.6 min
- AUC(0-inf) (in vivo; po, 5 mg/kg): 8180 ng·h/mL
- AUC(0-t) (in vivo; po, 5 mg/kg): 8080 ng·h/mL
- Cmax (in vivo; po, 5 mg/kg): 4020 ng/mL
- Tmax (in vivo; po, 5 mg/kg): 25 min
- half-life (in vivo; po, 5 mg/kg): 79.8 min

SMILES: COc1ccc(-c2cc(NC3C4CCC(CC4)C3C(=O)O)nc(-c3c[nH]c4ncc(F)cc34)n2)cc1 (racemic) [Example 3, (+/−)-trans-3-((2-(5-fluoro-1H-pyrrolo[2,3-b]pyridin-3-yl)-6-(4-methoxyphenyl)pyrimidin-4-yl)amino)bicyclo[2.2.2]octane-2-carboxylic Acid]
- EC50 (virus H1N1 A/Weiss/43 [1]): < 50 nM

SMILES: O=C(O)C1C2CCC(CC2)C1Nc1cc(-c2ccccc2)nc(-c2c[nH]c3ncc(F)cc23)n1 (racemic) [Example 4, (+/−)-trans-3-((2-(5-fluoro-1H-pyrrolo[2,3-b]pyridin-3-yl)-6-phenylpyrimidin-4-yl)amino)bicyclo[2.2.2]octane-2-carboxylic Acid]
- EC50 (virus H1N1 A/Weiss/43 [1]): < 50 nM
- EC50 (virus H1N1 A/Weiss/43 [3]): 0.2 nM
- F [2]: 56.4%
- AUC(0-inf) (in vivo; iv, 1 mg/kg): 4610 ng·h/mL
- AUC(0-t) (in vivo; iv, 1 mg/kg): 4540 ng·h/mL
- Cmax (in vivo; iv, 1 mg/kg): 5980 ng/mL
- Tmax (in vivo; iv, 1 mg/kg): 4.98 min
- Vd (in vivo; iv, 1 mg/kg): 0.412 L/kg
- clearance (in vivo; iv, 1 mg/kg): 3.66 mL/min/kg
- half-life (in vivo; iv, 1 mg/kg): 163 min
- AUC(0-inf) (in vivo; po, 5 mg/kg): 12800 ng·h/mL
- AUC(0-t) (in vivo; po, 5 mg/kg): 12800 ng·h/mL
- Cmax (in vivo; po, 5 mg/kg): 3480 ng/mL
- Tmax (in vivo; po, 5 mg/kg): 40 min
- half-life (in vivo; po, 5 mg/kg): 178 min

SMILES: O=C(O)C1C2CCC(CC2)C1Nc1cc(-c2ccc(F)cc2)nc(-c2c[nH]c3ncc(F)cc23)n1 (racemic) [Example 6, (+/−)-trans-3-((2-(5-fluoro-1H-pyrrolo[2,3-b]pyridin-3-yl)-6-(4-fluorophenyl)pyrimidin-4-yl)amino)bicyclo[2.2.2]octane-2-carboxylic Acid]
- EC50 (virus H1N1 A/Weiss/43 [1]): < 50 nM

SMILES: Cn1ccc2c(NC3C4CCC(CC4)C3C(=O)O)nc(-c3c[nH]c4ncc(F)cc34)nc21 (racemic) [Example 65, (+/−)-trans-3-((2-(5-fluoro-1H-pyrrolo[2,3-b]pyridin-3-yl)-7-methyl-7H-pyrrolo[2,3-d]pyrimidin-4-yl)amino)bicyclo[2.2.2]octane-2-carboxylic Acid]
- EC50 (virus H1N1 A/Weiss/43 [3]): 0.66 nM
- F [2]: 44.9%
- AUC(0-inf) (in vivo; iv, 1 mg/kg): 5360 ng·h/mL
- AUC(0-t) (in vivo; iv, 1 mg/kg): 5340 ng·h/mL
- Cmax (in vivo; iv, 1 mg/kg): 6830 ng/mL
- Tmax (in vivo; iv, 1 mg/kg): 4.98 min
- Vd (in vivo; iv, 1 mg/kg): 0.168 L/kg
- clearance (in vivo; iv, 1 mg/kg): 3.13 mL/min/kg
- half-life (in vivo; iv, 1 mg/kg): 57.9 min
- AUC(0-inf) (in vivo; po, 5 mg/kg): 12100 ng·h/mL
- AUC(0-t) (in vivo; po, 5 mg/kg): 12000 ng·h/mL
- Cmax (in vivo; po, 5 mg/kg): 7940 ng/mL
- Tmax (in vivo; po, 5 mg/kg): 25 min
- half-life (in vivo; po, 5 mg/kg): 68.4 min
